# From patent publication US7671077B2, “Neuroprotective small organic molecules, compositions and uses related thereto” (priority 2004, dated 2010)
# Tested on: midbrain dopaminergic neurons
# Test: Dopamine (DA) uptake assay in primary midbrain cultures
# Type: cell-based, rat
# Conditions: 20 μM
# Protocol: Primary midbrain cultures were prepared from rat embryo ventral mesencephalon as described previously by Lin et al (1994). In brief, rostral mesencephalic tegmentum of embryonic day 16 rat embryos was collected in DMEM/F12 (Hyclone SH30023.01) containing 2 mM glutamine on ice, The tissue was treated with 0.1% trypsin in Hanks' balanced salt solution (HBSS, Gibco 14175-095) for 15 min at 37° C. and dissociated mechanically by mild trituration with a fire-polished glass pipet in growth medium plus 2% heat-inactivated fetal bovine serum (FBS). The growth medium consisted of equal volumes of Dulbecco's minimal essential medium DMEM (Gibco 12100-046) and HAM's F12 nutrient mixture (Gibco 21700-075) supplemented with 33 mM glucose, 13 mM sodium bicarbonate, 5 mM HEPES, 2 mM glutamine, 25 μg/ml insulin, 100 μg/ml transferrin, 60 μM putrescine, 20 nM progesterone, 30 nM sodium selenite, 5 U/ml penicillin G and 5 μg/ml streptomycin. 24-well tissue culture plate was coated by adding 15 μg/ml poly-1-ornithine hydrobromide solution at 0.5 ml/well, incubated at room temperature for 1 hr. The coating solution was removed and the well washed 3 times with distilled water and one wash with HBSS. The dissociated cells were plated onto polyornithine-coated wells at 250,000-350,000 trypan blue-excluding viable cells per well in 500 μl of above medium containing 1% FBS. After 3 h when most of the cells had adhered to the bottom of the well, the medium was replaced with 500 μl of fresh medium without FBS. A serial dilution of the sample to be assayed for trophic activity was added to each well in duplicate at the time of medium change or within 24 h thereafter. Unless otherwise stated, cultures were incubated at 37° C. without any further medium change up to 7 days. Primary hindbrain cultures were prepared as described for the midbrain cultures except that the rostral raphe region (instead of the rostral mesencephalon) was dissected and trypsinized for 20 (instead of 15) min.
# [^3H]DA uptake was measured in cultures at day 7, and all the solutions were maintained at 37° C. The growth medium was removed, and the cultures were rinsed twice with 0.25 ml of uptake buffer, which consists of HBSS (Gibco 11201-092) supplemented with 28 mM glucose, 15 mM HEPES, 1 mM ascorbic acid (an antioxidant), and […] pargyline (a monoamine oxidase inhibitor). The cultures were then incubated with 0.25 ml of fresh uptake buffer containing 50 nM [^3H]DA (NEN/DuPont) for 20 min at 37° C. [^3H]DA uptake was stopped by removing the incubation mixture, and cells were then washed twice with 0.5 ml of the uptake buffer at room temperature. To release [^3H]DA from the cells, the cultures were lysed with 0.2 ml of 0.1 N NaOH for 1 h at room temperature, the lysate was then added to 1 ml of Microscint-20 (Packard 6013621), and counted for radioactivity in a microplate scintillation counter (Packard TopCount, NXT). Background values were obtained by adding to the uptake buffer 0.5 mM GBR-12909, a specific inhibitor of the high-affinity uptake pump of the dopaminergic neurons, and were usually <5% of the ^3H uptake in untreated control cultures. Forskolin (Fk, 25 μM) was employed as a positive control.
row,SMILES,cytotoxicity in midbrain culture
1,O=C(Nc1ccc(S(=O)(=O)Nc2nc[nH]n2)cc1)c1ccc2ccccc2c1 [Y′],no cytotoxicity

# Same assay, conditions: FIG. 36
row,SMILES,stimulation maximum of DA uptake compared to compound A
1,Cc1ccc(/C=C/C(=O)Nc2ccc(S(=O)(=O)Nc3cccs3)cc2)c(C)c1 [Compound Z′],higher stimulation maximum

# Same assay, conditions: Rattus norvegicus, Neuron, compound concentration 0.25 μM; midbrain culture; read-out: DA uptake % of control
row,SMILES,activity at 0.25 µM
1,O=C(Nc1ccc(S(=O)(=O)Nc2nccs2)cc1)c1cc2ccccc2oc1=O [F′′′′],160%

# Same assay, conditions: Rattus norvegicus, Neuron, compound concentration 0.3 μM; midbrain culture; read-out: DA uptake % of control
row,SMILES,activity at 0.3 µM
1,O=C(/C=C/c1ccc(Cl)cc1Cl)Nc1ccc(S(=O)(=O)Nc2nccs2)cc1 [V″],250%

# Same assay, conditions: Rattus norvegicus, Neuron, compound concentration 0.6 μM; midbrain culture; read-out: DA uptake % of control
row,SMILES,activity at 0.6 µM
1,O=C(/C=C/c1ccc(C(F)(F)F)cc1)Nc1ccc(S(=O)(=O)Nc2nccs2)cc1 [A′′′],195%
2,O=C(/C=C/c1cccc(Cl)c1Cl)Nc1ccc(S(=O)(=O)Nc2nccs2)cc1 [Y′′′′],180%
3,O=C(/C=C/c1ccccc1Cl)Nc1ccc(S(=O)(=O)N2CCCCC2)cc1 [M′],145%
4,O=C(/C=C/c1cccc(C(F)(F)F)c1Cl)Nc1ccc(S(=O)(=O)Nc2nccs2)cc1 [C′′′],180%

# Same assay, conditions: Rattus norvegicus, Neuron, compound concentration 0.7 μM; midbrain culture; read-out: DA uptake % of control
row,SMILES,activity at 0.7 µM
1,O=C(/C=C/c1cccc(Cl)c1)Nc1ccc(S(=O)(=O)Nc2cnc3ccccc3n2)cc1 [K],190%

# Same assay, conditions: Rattus norvegicus, Neuron, compound concentration 1.25 μM; midbrain culture; read-out: DA uptake % of control
row,SMILES,activity at 1.25 µM
1,O=C(/C=C/c1ccc(F)cc1Cl)Nc1ccc(S(=O)(=O)Nc2nccs2)cc1 [W′′′′],190%
2,O=C(/C=C/c1ccccc1I)Nc1ccc(S(=O)(=O)Nc2nccs2)cc1 [Z″],300%
3,O=C(/C=C/c1ccc(Cl)cc1)Nc1ccc(S(=O)(=O)Nc2ncccn2)cc1 [A′],140%
4,Cc1ccccc1/C=C/C(=O)Nc1ccc(S(=O)(=O)Nc2nc[nH]n2)cc1 [X′′′′],260%
5,Cc1ccc(/C=C/C(=O)Nc2ccc(S(=O)(=O)Nc3cccs3)cc2)c(C)c1 [Compound Z′],365%
6,O=C(/C=C/c1c(Cl)cccc1Cl)Nc1ccc(S(=O)(=O)Nc2ccccn2)cc1 [A″],340%
7,O=C(/C=C/c1cccc(OC(F)(F)F)c1)Nc1ccc(S(=O)(=O)Nc2nccs2)cc1 [V′′′′],200%
8,O=C(/C=C/c1cccc(C(F)(F)F)c1)Nc1ccc(S(=O)(=O)Nc2nccs2)cc1 [H′′′′],240%
9,O=C(Nc1ccc(S(=O)(=O)Nc2nc[nH]n2)cc1)c1ccc2ccccc2c1 [Y′],290%
10,COc1cc(Br)c(/C=C/C(=O)Nc2ccc(S(=O)(=O)Nc3nccs3)cc2)cc1OC [B′′′],260%
11,Cc1cc(C)cc(/C=C/C(=O)Nc2ccc(S(=O)(=O)Nc3nccs3)cc2)c1 [D′′′],240%
12,O=C(/C=C/c1ccccc1Br)Nc1ccc(S(=O)(=O)Nc2nc[nH]n2)cc1 [D″],310%
13,O=C(/C=C/c1cc(C(F)(F)F)ccc1C(F)(F)F)Nc1ccc(S(=O)(=O)Nc2nccs2)cc1 [X″],245%
14,Cc1ccc(C)c(/C=C/C(=O)Nc2ccc(S(=O)(=O)Nc3nccs3)cc2)c1 [J″],320%

# Same assay, conditions: Rattus norvegicus, Neuron, compound concentration 1.4 μM; midbrain culture; read-out: DA uptake % of control
row,SMILES,activity at 1.4 µM
1,Cc1ccnc(NS(=O)(=O)c2ccc(NC(=O)/C=C/c3cccc(Cl)c3)cc2)n1 [S],220%

# Same assay, conditions: Rattus norvegicus, Neuron, compound concentration 2.5 μM; midbrain culture; read-out: DA uptake % of control
row,SMILES,activity at 2.5 µM
1,O=C(/C=C/c1cccc(F)c1)Nc1ccc(S(=O)(=O)Nc2nc[nH]n2)cc1 [S″],280%
2,COc1ccccc1/C=C\C(=O)Nc1ccc(S(=O)(=O)Nc2nccs2)cc1 [L′′′′],200%
3,O=C(/C=C/c1ccccc1)Nc1ccc(S(=O)(=O)Nc2nccs2)cc1 [B],170%
4,O=C(/C=C/c1ccc(Oc2ccccc2)cc1)Nc1ccc(S(=O)(=O)Nc2nccs2)cc1 [N],170%
5,Cc1ccccc1/C=C/C(=O)Nc1ccc(S(=O)(=O)Nc2nccs2)cc1 [T″],230%
6,Cn1c(C(=O)Nc2ccc(S(=O)(=O)Nc3nccs3)cc2)cc2ccccc21 [D′′′′],190%
7,COc1ccccc1/C=C/C(=O)Nc1ccc(S(=O)(=O)NC(=N)/C=C(\C)O)cc1 [W′′′],140%
8,Cc1ccc(/C=C/C(=O)Nc2ccc(S(=O)(=O)Nc3nc(C)cc(C)n3)cc2)cc1 [O′],150%
9,O=C(/C=C/c1ccccc1Cl)Nc1ccc(S(=O)(=O)Nc2ccccn2)cc1 [F″],180%
10,Cc1ccc(/C=C/C(=O)Nc2ccc(S(=O)(=O)Nc3onc(C)c3C)cc2)cc1 [N′],155%
11,COc1ccc(/C=C/C(=O)Nc2ccc(S(=O)(=O)Nc3cc(C)nc(C)n3)cc2)cc1Br [Q],140%
12,O=C(Nc1ccc(S(=O)(=O)Nc2nccs2)cc1)c1cc2ccccc2s1 [N′′′′],170%
13,O=C(/C=C/c1ccccc1Cl)Nc1ccc(S(=O)(=O)N2CCOCC2)cc1 [I′],150%
14,O=C(/C=C/c1ccccc1Br)Nc1ccc(S(=O)(=O)Nc2ccccn2)cc1 [U″],210%
15,O=C(/C=C/c1cccc(Br)c1)Nc1ccc(S(=O)(=O)Nc2nccs2)cc1 [M′′′′],190%
16,O=C(/C=C/c1ccccc1F)Nc1ccc(S(=O)(=O)Nc2ccccn2)cc1 [Z′′′],140%

# Same assay, conditions: Rattus norvegicus, Neuron, compound concentration 5 μM; midbrain culture; read-out: DA uptake % of control
row,SMILES,activity at 5 µM
1,O=C(/C=C/c1ccccc1)Nc1ccc(S(=O)(=O)Nc2nnc[nH]2)cc1 [Q′′′],170%
2,Cc1cc(NS(=O)(=O)c2ccc(NC(=O)/C=C/c3ccccc3Cl)cc2)no1 [B″],180%
3,Cc1noc(NS(=O)(=O)c2ccc(NC(=O)/C=C/c3ccc(Cl)cc3)cc2)c1C [J′],180%
4,COc1ccccc1/C=C/C(=O)Nc1ccc(S(=O)(=O)Nc2ccccn2)cc1 [P″],200%
5,COc1ccc(/C=C/C(=O)Nc2ccc(S(=O)(=O)Nc3nccs3)cc2)cc1 [I′′′],140%
6,CCc1nnc(NS(=O)(=O)c2ccc(NC(=O)/C=C/c3ccc(F)cc3)cc2)s1 [W],180%
7,Cc1cccc(/C=C/C(=O)Nc2ccc(S(=O)(=O)Nc3ccccn3)cc2)c1 [B′′′′],240%
8,Cc1noc(NS(=O)(=O)c2ccc(NC(=O)/C=C/c3ccccc3Cl)cc2)c1C [L′],140%
9,CCOc1cccc(/C=C/C(=O)Nc2ccc(S(=O)(=O)Nc3nccs3)cc2)c1 [S′′′′],170%
10,CCc1ccccc1/C=C\C(=O)Nc1ccc(S(=O)(=O)Nc2nc[nH]n2)cc1 [R″],290%
11,CCc1nnc(NS(=O)(=O)c2ccc(NC(=O)c3ccc(Cl)cc3Cl)cc2)s1 [B′],150%

# Same assay, conditions: Rattus norvegicus, Neuron, compound concentration 10 μM; midbrain culture; read-out: DA uptake % of control
row,SMILES,activity at 10 µM
1,COc1ccc(C(=O)Nc2ccc([S+]([O-])Nc3nccs3)cc2)cc1 (centres unmarked) [H′],160%
2,O=C(Nc1ccc(S(=O)(=O)Nc2nccs2)cc1)c1cccc(C(F)(F)F)c1 [V],220%
3,O=C(/C=C/c1ccccc1Cl)Nc1ccc(S(=O)(=O)Nc2nncs2)cc1 [U′′′],180%
4,Cc1nc(NS(=O)(=O)c2ccc(NC(=O)/C=C/c3ccccc3Cl)cc2)sc1C(=O)O [Y′′′],160%
5,CCc1nnc(NS(=O)(=O)c2ccc(NC(=O)/C=C/c3ccc(OC)cc3OC)cc2)s1 [U],150%
6,Cc1cccc(C(=O)Nc2ccc(S(=O)(=O)Nc3nccs3)cc2)c1 [T],140%
7,O=C(Nc1ccc(S(=O)(=O)Nc2nccs2)cc1)/C(F)=C/c1ccccc1 [O′′′′],200%

# Same assay, conditions: Rattus norvegicus, Neuron, compound concentration 20 μM; midbrain culture; read-out: DA uptake % of control
row,SMILES,activity at 20 µM
1,O=C(/C=C/c1ccc(F)cc1)Nc1ccc(S(=O)(=O)Nc2nccs2)cc1 [O],240%
2,Cc1ccc(C(=O)Nc2ccc(S(=O)(=O)Nc3nccs3)cc2)cc1 [R],140%
3,Cc1cc(NS(=O)(=O)c2ccc(NC(=O)/C=C/c3ccccc3)cc2)no1 [G′],140%

# Same assay, conditions: Rattus norvegicus, Neuron, compound concentration 40 μM; midbrain culture; read-out: DA uptake % of control
row,SMILES,activity at 40 µM
1,O=C(/C=C/c1ccccc1)Nc1ccc(S(=O)(=O)Nc2nncs2)cc1 [T′′′],150%

# Same assay, conditions: Rattus norvegicus, Neuron; midbrain culture, FIG. 36; read-out: half-maximal effective concentration (EC50) for DA uptake stimulation
row,EC50,SMILES
1,~200 nM,Cc1ccc(/C=C/C(=O)Nc2ccc(S(=O)(=O)Nc3cccs3)cc2)c(C)c1 [Compound Z′]
2,~200 nM,O=C(Nc1ccc(S(=O)(=O)Nc2nc[nH]n2)cc1)c1ccc2ccccc2c1 [Y′]

# Same assay, conditions: compound concentration 2.5 μM; midbrain culture
row,SMILES,DA uptake % of control
1,O=C(/C=C/c1ccccc1Br)Nc1ccc(S(=O)(=O)Nc2nccs2)cc1 [J′′′′],210%
